# Literature values in PMC4744661 (Diabetes/Metabolism Research and Reviews, 2015).
# Tested on: gastric emptying
# Conditions: healthy volunteers and patients with T2DM
row,Substance,effect on gastric emptying / acetaminophen exposure
1,exenatide [exenatide BID],substantially slowed gastric emptying
2,"liraglutide (HAEGTFTSDVSSYLEGQAAKEFIAWLVRGRG; chains of the INN, looked up)",equivalent effects on acetaminophen exposure
